According to US12403154B2, “Administration of sting agonist and checkpoint inhibitors” (Takeda Pharmaceutical Company Limited, priority 2019, dated 2025):

Columns and labels:
Assay type in all cases: in vivo
[1] = test system: WEHI-3 mouse myelomonocytic leukemia cell line; test: WEHI-3 mouse syngeneic tumor model (Study 3); conditions: WEHI3 model; vs PBS; time-to-progression (tumor 1000 mm^3); Compound No. 14 0.25 mg/kg IV Day 0, 3, 6; anti-mPD-1 10 mg/kg IP Day 0, 3, 6, 13
Method: WEHI-3 Study 3: WEHI-3 is a mouse myelomonocytic leukemia cell line. WEHI-3 mouse syngeneic tumor model was generated by subcutaneous inoculation with 0.1×10^6 WEHI-3 cells (cell suspension) in approximately 11 weeks old female BALB/c mice (Vital River Laboratory Animal Technology Co., Ltd., Beijing, China) in the flank. When the mean tumor volume reached approximately 60 mm^3, the animals were randomized into one vehicle control and four treatment groups (n=10/group). Mice were then dosed with PBS or Compound No. 14 or anti-mouse PD-1 antibody or Compound No. 14 plus anti-mouse PD-1 antibody over a 21-day period. Tumor growth and body weight were measured twice per week during the treatment and post-treatment periods, and mice were humanely euthanized once they had reached their humane endpoint. […]
(§1) Tumors were measured twice weekly using vernier calipers. Tumor volumes were calculated using standard equation: V=W^2×L/2, where V=volume, W=width, and L=length for the tumor. […] Tumor size and body weight were measured twice a week for the duration of the study. […]
(§2) After the transformation, linear interpolation was used to estimate the time (in days) since randomization each mouse's tumor volume reaches 1000 mm^3. […] In case of a mouse's tumor having not reached 1000 mm^3 at the end of study, the last day the mouse was on study was recorded and right-censored. […]

[2] = test system: L5178-R mouse lymphoma cell line; test: L5178-R mouse syngeneic tumor model (Study 2); conditions: vs PBS, time-to-progression (tumor 1000 mm^3), Compound No. 14 0.25 mg/kg IV Day 0, 3, 6, anti-mPD-1 10 mg/kg IP Day 0, 3, 6
Method: L5178-R Study 2: L5178-R is a mouse lymphoma cell line. L5178-R mouse syngeneic tumor model was generated by subcutaneous inoculation with 0.2×10^6 L5178-R cells (cell suspension) in approximately 12 weeks old female DBA/2 mice (Vital River Laboratory Animal Technology Co., Ltd., Beijing, China) in the flank. When the mean tumor volume reached approximately 65 mm^3, the animals were randomized into one vehicle control and four treatment groups (n=10/group). Mice were then dosed with PBS or Compound No. 14 or anti-mouse PD-1 antibody or Compound No. 14 plus anti-mouse PD-1 antibody at 10 mg/kg (Q3D×3 & QW×3) over a 10-day period. Tumor growth and body weight were measured twice per week during the treatment and post-treatment periods, and mice were humanely euthanized once they had reached their humane endpoint. […]
as §1, §2

[3] = test system: RM-1 mouse prostate carcinoma cell line; test: RM-1 mouse syngeneic tumor model (Study 4); conditions: RM-1 model; vs PBS; time-to-progression (tumor 1000 mm^3); Compound No. 14 0.25 mg/kg IV Day 0, 3, 6; anti-mPD-1 10 mg/kg IP Day 0, 3, 6, 13
Method: RM-1 Study 4: RM-1 is a mouse prostate carcinoma cell line. RM-1 mouse syngeneic tumor model was generated by subcutaneous inoculation with 0.8×10^6 RM-1 cells (cell suspension) in 10 weeks old female C57BL/6 mice (Vital River Laboratory Animal Technology Co., Ltd., Beijing, China) in the flank. When the mean tumor volume reached approximately 60 mm^3, the animals were randomized into one vehicle control and four treatment groups (n=10/group). Mice were then dosed with PBS or Compound No. 14 or anti-mouse PD-1 antibody or Compound No. 14 plus anti-mouse PD-1 antibody over a 19-day period. Tumor growth and body weight were measured twice per week during the treatment and post-treatment periods, and mice were humanely euthanized once they had reached their humane endpoint. […]
as §1, §2

[4] = test system: A20 mouse B-cell lymphoma cell line; test: A20 mouse syngeneic tumor model (Study 1)
Method: A20 Study 1: A20 is a mouse B-cell lymphoma cell line. A20 mouse syngeneic tumor model was generated by subcutaneous inoculation with 0.4×10^6 A20 cells (cell suspension) in approximately 9 weeks old female BALB/c mice (Vital River Laboratory Animal Technology Co., Ltd., Beijing, China) in the flank. When the mean tumor volume reached approximately 55 mm^3, the animals were randomized into one vehicle control and three treatment groups (n=10/group). Mice were then dosed with PBS or Compound No. 14 or anti-mouse PD-1 antibody or Compound No. 14 plus anti-mouse PD-1 antibody over a 31-day period. Tumor growth and body weight were measured twice per week during the treatment and post-treatment periods, and mice were humanely euthanized once they had reached their humane endpoint. […]
as §1, §2

[5] = test system: L1210 mouse leukemia cell line; test: L1210 mouse syngeneic tumor model (Study 5); conditions: vs PBS, time-to-progression (tumor 1000 mm^3), Compound No. 14 0.25 mg/kg IV Day 0, 3, 6, anti-mPD-1 10 mg/kg IP Day 0, 3, 6, 13
Method: L1210 Study 5: L1210 is a mouse leukemia cell line. L1210 mouse syngeneic tumor model was generated by subcutaneous inoculation with 0.02×10^6 L1210 cells (cell suspension) in approximately 11 weeks old female DBA/2 mice (Vital River Laboratory Animal Technology Co., Ltd., Beijing, China) in the flank. When the mean tumor volume reached approximately 50 mm^3, the animals were randomized into one vehicle control and four treatment groups (n=10/group). Mice were then dosed with PBS or Compound No. 14 or anti-mouse PD-1 antibody or Compound No. 14 plus anti-mouse PD-1 antibody over a 15-day period. Tumor growth and body weight were measured twice per week during the treatment and post-treatment periods, and mice were humanely euthanized once they had reached their humane endpoint. […]
as §1, §2

## Nc1ncnc2c1ncn2[C@@H]1O[C@@H]2COP(=O)(S)O[C@@H]3[C@H](O)[C@@H](COP(=O)(S)O[C@H]2[C@H]1F)O[C@H]3n1cc(F)c2c(=O)[nH]cnc21 (stereo partly drawn) [Compound No. 14]
[1]
  HR (Weibull): 0.0487
[2]
  HR (Weibull): 0.544
[3]
  HR (Weibull): 0.425
[4]; A20 model, vs PBS, time-to-progression (tumor 1000 mm^3), Compound No. 14 0.25 mg/kg IV Day 0, 3, 6, anti-mPD-1 10 mg/kg IP Day 0, 3, 6, 13, 20, 27
  HR (Weibull): 0.104
[4]; A20 study, 31 days, n=10/group
  complete responses: one
[5]
  HR (Weibull): 0.118
